Measurements from patent US9598463B2, “Mucin hypersecretion inhibitors and methods of use” (BIOMARCK PHARMACEUTICALS, LTD., priority 2005, dated 2017).
Marks after values point to notes of the source that are not given here.

Experiments:
[1] = Stability of test peptides in human BALF (LC/MS/MS, first order half-life); format: in vitro ADME; conditions: cerebrospinal or other body fluid, human BALF from COPD patients, 1st experiment, read-out: BALF t1/2 (1st exp.) (converted)
Experimental: Various test peptides in human plasma, human BALF, and CF patient mucus were analyzed to determine the susceptability of the test peptide to proteolysis in the biological fluids. […] The samples were analyzed either on the same day as received or stored at −20° C. and analyzed within the following two days.
Samples of BALF collected from COPD patients were obtained and frozen. The BALF samples were thawed, mixed together and centrifuged at 10,000×g for 10 min at 4-8° C. The supernatant (0.9 mL) was spiked with 0.1 mL of 0.5 mg/mL solution of the peptide in 75 mM sodium acetate buffer at pH 7.0 and processed and analyzed as described above.
All samples were analyzed using LC/MS/MS (MDS/SCIEX, API 4000 Model). Chromatography was performed using a Phenomenex Luna C18 column, while mass spectrometry was performed using positive ion electrospray ionization.
Calibration standards were analyzed by LCMS at concentrations of 0.100 μg/mL, 1.00 μg/mL, 10.0 μg/mL, and 100 μg/mL for each peptide, with the exception of the calibration standards for peptides myr-PEPTIDE 106, PEPTIDE 106, PEPTIDE 106-NH2, PEPTIDE 106, and cyclic peptide, cyc-PEPTIDE 106, in human mucus, which were analyzed at concentrations of 0.100 μg/mL, 1.00 μg/mL, 10.0 μg/mL, and 75 μg/mL. Standards were prepared in 1% human BALF, plasma, or mucus in 50/50 water/acetonitrile mixture containing 0.2% formic acid. The instrument response values for each set of standards were fit using a 1/(concentration)^2 linear least-squares line. Sample concentrations were calculated using the slope and intercept of this line. Concentrations outside of the calibration range were determined by extrapolating the calibration curve.
Duplicate calibration standards were analyzed at a concentration of 50 μg/mL for each peptide. The instrument response values for each set of standards were fit through an intercept of 0 using an unweighted, linear least-squares line. Sample concentrations were calculated using the slope and intercept of this line.
For the analysis of peptide concentration in BALF samples, one 50 μg/mL calibration standard prepared in a mixture of BALF, water, acetonitrile, and formic acid was analyzed with each sample set.
Watson fits the log transformed data with a least-squares line to determine parameters such as Cmax (maximum concentration), intercept, rate constant, slope, and T1/2 (half-life). The resulting kinetic parameters were based on the linear fit, not the actual concentration values.
Time-zero calibration standards in solution were not included as part of the kinetic profiles.

[2] = tested on: methacholine-induced mucin hypersecretion; assay: Duration of action of test peptides in a murine model of asthma; format: in vivo; conditions: Balb/C mice
Description: Experiments were designed to test whether or not the MANS peptide and other test peptides related thereto inhibit hypersecretion of mucin in murine airway in vivo. The ovalbumin-sensitized mouse model of allergic inflammation and asthma used in these studies was as described by Singer et al. (2004), supra. As a negative control, a control peptide containing an N-terminal myristoyl group and the same amino acids as MANS peptide but arranged in random order (i.e., the random N-terminal sequence, RNS, myristoyl-peptide 232) was tested alongside the proposed active peptides. BP2 mice, aged 6-8 wks, were immunized subcutaneously twice at weekly intervals with 1 μg of ovalbumin. After 14 days of sensitization, the animals were exposed to aerosolized ovalbumin, which causes a pronounced goblet cell hyperplasia after 72 hours. At the 72 hr time point, the secretagogue, methacholine ([…]) was delivered using a Buxco system nebulizer providing a fine aerosol for 90 seconds. Fifteen min prior to the secretagogue challenge, 50 μL of the test peptide, at 3 different concentrations (10 μM, 100 μM, or 140 μM), was administered by intratracheal route. The RNS peptide was tested at the highest dose level only (50 μL of 140 μM solution). […] Each experiment was carried out in 6 mice per point, and each set of experiments was repeated 3 times. To test strain-to-strain variations, the above experiment was repeated in Balb/C mice under similar protocol. Both stimulated and unstimulated mucin secretion, in mice treated with […] sodium acetate (data not shown), were identical to saline control. Following the methacholine challenge, the animals were sacrificed and bronchoalveolar lavage (BAL) performed on 6 animals per group for analysis of secreted mucin.
Mice were sacrificed by cervical dislocation, followed by rapid exposure of the trachea and insertion of a cannula through a small incision. Bronchoalveolar lavage (BAL) fluid was collected with 0.5 ml followed by 3×1 ml PBS containing PMSF (5 mM), EDTA (5 mM), and DTT (5 mM). BAL fluid was separated into cell-free and cell fractions via brief centrifugation prior to any analyses being performed. The cell-free supernatants were analyzed for the presence of mucin via an ELISA method using anti-mucin antibodies shown to react with mouse mucin. Specifically, a mouse anti-MUC5AC antibody that recognizes the carbohydrate portion of secreted mucin was used in these assays. Data generated from each BAL sample were normalized to total protein as determined by Bradford assay. Mucin content was expressed as the value obtained with the anti-mucin antibody minus that obtained with the non-immune control antibody. All ELISA data were statistically examined using a one-way ANOVA.
Experiments were designed to determine the duration of action of test peptides in a murine model of asthma. As described in Method 1A, Balb/C mice were immunized with ovalbumin. After 14 days, the animals were challenged with aerosolized ovalbumin. After 72 hours the secretagogue, methacholine was delivered by aerosolization. The test peptides ([…] of 100 µM solution) were administered by intratracheal route 30 min, 60 min, or 120 min prior to methacholine challenge. The animals were sacrificed and BAL performed for analysis of secreted mucin The results of this experiment are given in Table VI.

[3] = tested on: methacholine-induced mucin hypersecretion; assay: Methacholine-induced mucin hypersecretion in ovalbumin-sensitized mouse model of asthma, BAL mucin ELISA (Balb/C mice); format: in vivo; conditions: for Mucin Secretion % control: Table II, peptides at 100 μM, 50 μL intratracheal 15 min before methacholine; for Mucin Secretion % of control: Table IV
Method in brief: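 BP2 or Balb/C mice immunized s.c. twice weekly with 1 μg ovalbumin, aerosol ovalbumin challenge after 14 days, then aerosolized methacholine 72 h later. Anti-MUC5AC ELISA on cell-free BAL, minus non-immune antibody signal, normalized to Bradford protein; 6 mice per group.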

[4] = Qualitative solubility of test peptides in 0.5 N saline; format: physicochemical; conditions: pH 6.5, 20° C. (table title)
Method in brief: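 Weighed peptide (1 to 5 mg) titrated with 25 μL aliquots of 0.5 N saline, pH 6.5, at 25° C until dissolution judged visually. Solubility calculated from volume needed; complete dissolution in first aliquot reported as greater than, non-dissolution as less than, the calculated value.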

[5] = peptide intratracheal 30 min prior to methacholine challenge
[6] = peptide intratracheal 60 min prior to methacholine challenge
[7] = peptide intratracheal 120 min prior to methacholine challenge

Ac-GAQFSKTAAK-OH [Ac-peptide 106]
half-life [1]: 1.89 h | Duration of action, mucin secretion (% of Control) [2, 5]: 21 % of Control | Duration of action, mucin secretion (% of Control) [2, 6]: 72 % of Control | Duration of action, mucin secretion (% of Control) [2, 7]: 70 % of Control | Mucin Secretion % control [3]: 21.5 % control | solubility [4]: > 100 mg/mL

H-GAQFSKTAAK-OH [peptide 106, GAQFSKTAAK]
half-life [1]: 1.88 h | Duration of action, mucin secretion (% of Control) [2, 5]: 23 % of Control | Duration of action, mucin secretion (% of Control) [2, 6]: 48 % of Control | Duration of action, mucin secretion (% of Control) [2, 7]: 57 % of Control | Mucin Secretion % control [3]: 33.8 % control | Mucin Secretion % of control ([3]; peptide 10 μM): 64* % of control | Mucin Secretion % of control ([3]; peptide 100 μM): 40** % of control | solubility [4]: > 70 mg/mL
